Tests used:
Type in all cases: cell-based
[1] = tested on: U138MG cells; assay: Cell viability with 2DG alone or combined with Rocaglamide (Example 4, FIG. 3); conditions: Mus musculus, U138-MG, 4 mM 2DG alone
Protocol: (§1) FIG. 3: Cell viability of […] cells treated with 2DG (1 mM or 4 mM) and of PBMCs treated with 2DG (1 mM) alone or in combination with Rocaglamide (0.1 μM, 0.025 μM, 0.01 μM).
In order to evaluate the potential of Rocaglamide to reduce the dose of 2DG while at the same time maintaining its antitumoral effect, combinations of different doses of 2DG with Rocaglamide were evaluated in U138MG cells ([…]). The cell-killing effect of the combination of Rocaglamide and 2DG was then compared with the effect of 2DG alone.

[2] = tested on: tumor cell lines; assay: MTT cell viability assay, number of responding cell lines (Example 1); conditions: 2-DG 1 mM alone; 48 h
Protocol: (§2) The MTT (MethylThiazol Tetrazolium) assay was used to determine cell viability. The MTT assay is a colorimetric method for measuring the activity of cellular enzymes that reduce the tetrazolium dye, MTT, to its insoluble formazan, giving a purple color. This method was used in the present experiments to reflect the number of viable cells present and to measure cytotoxicity (loss of viable cells).
Cells were plated in flat-bottom 96-well plates at a cell number of 10,000 in 100 p of medium per well. RPMI 1640 (Roswell Park Memorial Institute, Gibco, City, State) supplemented with fetal bovine serum (10%) and penicillin/streptomycin (1%) medium was used for cell culturing and plating. After plating, cells were incubated at 37° C. in an incubator at 5% CO2 concentration for 24 hours before the beginning of treatment. […]
To determine the amount of viable cells after the treatment, the absorption was measured at a wave length of 485 nm with the help of an ELISA reader device (TECAN GENios, Austria). […] Mean values and standard deviations were calculated from the measured values after background subtraction. As background, absorption was measured in wells containing medium alone.
2-DG treatment at a concentration of 1 mM induced a significant response (reduction of viability to less than 80% of the untreated cells) in 9 out of 15 cell lines analyzed.

[3] = tested on: NCH89; assay: MTT cell viability assay, tumor cell line (Example 1); conditions: Homo sapiens, 48 h, relative to untreated cells, read-out: Cell viability after treatment
Protocol: as §2
(§3) Cells were plated in flat-bottom 96-well plates at a cell number of 10,000 in 100 p of medium per well. RPMI 1640 (Roswell Park Memorial Institute, Gibco, City, State) supplemented with fetal bovine serum (10%) and penicillin/streptomycin (1%) medium was used for cell culturing and plating. After plating, cells were incubated at 37° C. in an incubator at 5% CO2 concentration for 24 hours before the beginning of treatment. After that, when cells became adherent, the medium was removed and 2-DG and rocaglamide were added to the cells at a concentration of 1 mM and 0.1 μM, respectively. After 48 hours of incubation, 20 μl of MTT reagent was added to each well. Cells were incubated for 1 hour at 37° C. before colorimetric assessment
(§4) To determine the amount of viable cells after the treatment, the absorption was measured at a wave length of 485 nm with the help of an ELISA reader device (TECAN GENios, Austria). All measurements were carried out in quadruplicate. Mean values and standard deviations were calculated from the measured values after background subtraction. As background, absorption was measured in wells containing medium alone.

[4] = tested on: C3; assay: as above; conditions: 48 h, relative to untreated cells, read-out: Cell viability after treatment
Protocol: as §2, §3, §4

[5] = tested on: U373; assay: as above; conditions: Homo sapiens, U373 MG, 48 h, relative to untreated cells, read-out: Cell viability after treatment
Protocol: as §2, §3, §4

[6] = tested on: K073; assay: as above; conditions: 48 h, relative to untreated cells, read-out: Cell viability after treatment
Protocol: as §2, §3, §4

[7] = tested on: GL261; assay: as above; conditions: Mus musculus, 48 h, relative to untreated cells, read-out: Cell viability after treatment
Protocol: as §2, §3, §4

[8] = tested on: RKO; assay: as above; conditions: Homo sapiens, 48 h, relative to untreated cells, read-out: Cell viability after treatment
Protocol: as §2, §3, §4

[9] = tested on: SMA560; assay: as above; conditions: Mus musculus, 48 h, relative to untreated cells, read-out: Cell viability after treatment
Protocol: as §2, §3, §4

[10] = tested on: H146; assay: as above; conditions: Homo sapiens, 48 h, relative to untreated cells, read-out: Cell viability after treatment
Protocol: as §2, §3, §4

[11] = tested on: HT29; assay: as above; conditions: Homo sapiens, 48 h, relative to untreated cells, read-out: Cell viability after treatment
Protocol: as §2, §3, §4

[12] = tested on: HCT116; assay: as above; conditions: Homo sapiens, 48 h, relative to untreated cells, read-out: Cell viability after treatment
Protocol: as §2, §3, §4

[13] = tested on: SW480; assay: as above; conditions: Homo sapiens, 48 h, relative to untreated cells, read-out: Cell viability after treatment
Protocol: as §2, §3, §4

[14] = tested on: NCH82; assay: as above; conditions: Homo sapiens, 48 h, relative to untreated cells, read-out: Cell viability after treatment
Protocol: as §2, §3, §4

[15] = tested on: LNT229; assay: as above; conditions: 48 h, relative to untreated cells, read-out: Cell viability after treatment
Protocol: as §2, §3, §4

[16] = in vitro; conditions: human
Protocol: as §1

[17] = tested on: HCT116 cells; assay: MTT assay, IC50 of flavaglines with and without 2DG (Example 2); conditions: HCT116 (FIG. 1A); flavagline 10-100 nM with 1 mM 2DG versus flavagline alone; 48 h
Text: (§5) FIG. 1: Determination of IC50 of Rocaglamide and FL3. Treatment schemes are illustrated by different line patterns explained on the right side of each graphic. Solid lines with squares represent treatment with Rocaglamide, dotted lines with circles represent treatment with Rocaglamide and 2DG in combination, dotted lines with triangles represent treatment with FL3, and dotted lines with rhombus represent treatment with FL3 and 2DG in combination. X axis represents treatment doses of flavaglines (Rocaglamide or FL3), y axis represents relative cell viability (determined by MT assay) in %; cells not treated with flavaglines are used as a reference (corresponding to 100% viability). A. HCT116 cells. B. HT29 cells. C: normal human PBMCs.
(§6) The MTT (MethylThiazol Tetrazolium) assay was the same as in Example 1. Colorectal cancer cells (HCT116 and HT29) as well as normal human PBMCs were plated in flat-bottom 96-well plates at a cell number of 10,000 and 100,000, respectively, in 100 μl of medium per well. […] (Roswell Park Memorial Institute, Gibco, Paisley, UK) supplemented with 10% fetal bovine serum and 1% penicillin/streptomycin (Gibco, N.Y., USA) medium was used for cell culturing and plating of tumor cells. Medium for PBMCs consisting of Iscove's modified DMEM (IMDM) supplemented by 10% human AB serum, 1% L-glutamin and 0,05% gentamycin was used for plating PBMCs. After plating, rocaglamide and FL3 were applied at five increasing concentrations (10, 25, 50, 75 and 100 nM) as single substances and in combination with 1 mM 2DG. Cells were then incubated with drugs in a CO2 chamber at 5% CO2 concentration (Memmert Incubator, Büchenbach, Germany) for 48 hours. Afterwards, 20 μl of MTT reagent (Promega, Madison, Wis., USA) were added to each well. Cells were incubated for 1 hour at 37° C. as above. To determine the amount of viable cells after the treatment the absorption was measured at a wave length of 485 nm in ELISA reader device (TECAN GENios, Salzburg, Austria). All measurements were carried out in quadruplicates.
(§7) Mean values and standard deviations were calculated from the measured values after background subtraction. As background, absorption was measured in wells containing only medium.

[18] = tested on: HT29 cells; assay: as above; conditions: HT29 (FIG. 1B); flavagline 10-100 nM with 1 mM 2DG versus flavagline alone; 48 h
Text: as §5, §6, §7

[19] = tested on: normal human PBMCs; assay: as above; conditions: normal human PBMCs (FIG. 1C); flavagline 10-100 nM with 1 mM 2DG versus flavagline alone; 48 h
Text: as §5, §6, §7

SMILES: OC[C@H]1OC(O)C[C@@H](O)[C@@H]1O (stereo partly drawn) [2DG, (4R,5S,6R)-6-(hydroxymethyl)oxane-2,4,5-triol]
- viability at 4000 µM ([1]; U136MG cells, read-out: cell viability compared to the untreated control): 46%
- cytotoxicity at 4000 µM ([1]; U138MG cells, read-out: reduction of cell viability compared to the untreated control): 54%
- cell lines with significant response (reduction of viability to less than 80% of the untreated cells) [2]: 9 out of 15
- viability at 1000 µM ([3]; 2DG 1 mM alone): 83.7%
- viability at 1000 µM ([4]; 2DG 1 mM alone): 103%
- viability at 1000 µM ([5]; 2DG 1 mM alone): 95.6%
- viability at 1000 µM ([6]; 2DG 1 mM alone): 89.6%
- viability at 1000 µM ([7]; 2DG 1 mM alone): 63.8%
- viability at 1000 µM ([8]; 2DG 1 mM alone): 118%
- viability at 1000 µM ([9]; SMA-560, 2DG 1 mM alone): 102%
- viability at 1000 µM ([10]; NCI-H146, 2DG 1 mM alone): 90.5%
- viability at 1000 µM ([11]; HT-29, 2DG 1 mM alone): 87.5%
- viability at 1000 µM ([12]; HCT-116, 2DG 1 mM alone): 82%
- viability at 1000 µM ([13]; 2DG 1 mM alone): 70.8%
- viability at 1000 µM ([14]; 2DG 1 mM alone): 68.3%
- viability at 1000 µM ([15]; 2DG 1 mM alone): 113%
- viability at 48 h, 1 mM [16]: 81.7%

SMILES: COc1cc(OC)c2c(c1)O[C@@]1(c3ccc(Br)cc3)[C@H](c3ccccc3)C[C@@H](O)[C@@]21O [FL3, (1R,3S,3aR,8bS)-3a-(4-Bromophenyl)-6,8-dimethoxy-3-phenyl-2,3,3a,8b-tetrahydro-1H-cyclopenta[b]benzofuran-1,8b-diol]
- change of IC50 of the flavagline in combination with 2DG [17]: substantially reduced
- change of IC50 of the flavagline in combination with 2DG [18]: substantially reduced
- change of IC50 of the flavagline in the presence of 2DG [19]: increased

SMILES: COc1ccc([C@@]23Oc4cc(OC)cc(OC)c4[C@]2(O)[C@H](O)[C@H](C(=O)N(C)C)[C@H]3c2ccccc2)cc1 [Rocaglamide, (1R,2R,3S,3aR,8bS)-1,8b-dihydroxy-6,8-dimethoxy-3a-(4-methoxyphenyl)-N,N-dimethyl-3-phenyl-2,3-dihydro-1H-cyclopenta[b][1]benzofuran-2-carboxamide]
- viability at 0.1 µM ([3]; rocaglamide 0.1 μM alone): 56.6%
- viability at 0.1 µM ([4]; rocaglamide 0.1 μM alone): 45.3%
- viability at 0.1 µM ([5]; rocaglamide 0.1 μM alone): 76.4%
- viability at 0.1 µM ([6]; rocaglamide 0.1 μM alone): 35.9%
- viability at 0.1 µM ([7]; rocaglamide 0.1 μM alone): 58.2%
- viability at 0.1 µM ([8]; rocaglamide 0.1 μM alone): 42.9%
- viability at 0.1 µM ([9]; SMA-560, rocaglamide 0.1 μM alone): 92.8%
- viability at 0.1 µM ([10]; NCI-H146, rocaglamide 0.1 μM alone): 47.3%
- viability at 0.1 µM ([11]; HT-29, rocaglamide 0.1 μM alone): 52.3%
- viability at 0.1 µM ([12]; HCT-116, rocaglamide 0.1 μM alone): 14.8%
- viability at 0.1 µM ([13]; rocaglamide 0.1 μM alone): 59.5%
- viability at 0.1 µM ([14]; rocaglamide 0.1 μM alone): 63.2%
- viability at 0.1 µM ([15]; rocaglamide 0.1 μM alone): 100%
- change of IC50 of the flavagline in combination with 2DG [17]: substantially reduced
- change of IC50 of the flavagline in combination with 2DG [18]: substantially reduced
- change of IC50 of the flavagline in the presence of 2DG [19]: increased

Reference: US20180169123A1, “COMBINATION THERAPY WITH A FLAVAGLINE AND 2-DEOXYGLUCOSE” (Ruprecht-Karls-Universitat Heidelberg, priority 2015, published 2018)
